Reference: patent US10273238B2, “Indazolones as modulators of TNF signaling” (AbbVie Inc., priority 2015, dated 2019)

These compounds were tested against TNFα (Homo sapiens, UniProt P01375) (assay: TNFα FP Competitive Binding Assay). Conditions: 20 nM TNFα trimer, 1 nM OregonGreen488 probe, read-out: TNF IC50.
Protocol: TNFα FP Competitive Binding Assay
Prepare 1× Assay Buffer (Water with 47 mil HEPES, 47 mM NaCl, 0.9 mM EDTA, 0.0071% Triton X-100) by adding 25 mL of 1 M HEPES, 5 mL of 5 M NaCl, 1 mL of 0.5 M EDTA, and 375 μL of a 10% Triton X-100 stock to a fresh 500 mL bottle of water.
Prepare fresh Assay Mixture containing 20 nM TNFα trimer (60 nM protein) and 1 nM 2′,7′-difluoro-3′,6′-dihydroxy-N-(2-(2-(2-((4-(isoquinolin-8-yl)-3-(4-(isoquinolin-8-yl)phenethoxy)benzyl)oxy)ethoxy)ethoxy)ethyl)-3-oxo-3H- spiro[isobenzofuran-1,9′-xanthene]-5-carboxamide probe in 1× Assay Buffer.
Top concentration of compounds, 10 mM in DMSO, dispensed in rows A-O in columns 1 and 13. Compounds are serially diluted 1:3 with DMSO in columns 2-12 or 14-24 using a 16-channel Matrix pipettor. Plates stored at −20° C.
Top concentration, 5 mM in DMSO, of compounds placed in rows A-O in columns 1 and 13.
Compounds are serially diluted 1:3 with DMSO in columns 2-12 or 14-24. Compound solutions are dispensed into replicate assay plates at 410 nL per well. Plates stored at 4° C.
TNFα FP Competitive Binding Assay Protocol • 1. Compound plates warmed to rt. • 2. Fresh Assay Mixture is prepared. • 3. Assay Mixture (20 μL) is dispensed each well of 384 assay plates using a Thermo Multidrop Combi or 16-channel Matrix pipettor. If Manual 12-point 1:3 Dilution Plates are to be tested, Assay Mix is dispensed into empty plates. Discovery Preps 12-point 1:3 Dilution Plates already contain 410 nL compound solution in DMSO. • 4. For Manual 12-point 1:3 Dilution Plates, 0.7 μL is manually transferred using a 16-channel Matrix pipettor to replicate assay plates containing 20 μL Assay Mixture for a final top compound concentration of […] (3.4% DMSO). • 5. For Discovery Preps 12-point 1:3 Dilution Plates, 20 μL Assay Mixture added the 410 nL compound solution already in the plates yields a final top compound concentration of 100 μM (2.0% DMSO). • 6. Background subtraction controls are wells P1-P8 containing only Assay Buffer. The low % inhibition controls are wells P9-P16 containing only Assay Mix. The high % inhibition are wells P17-P24 containing only 1 nM 2′,7′-difluoro-3′,6′-dihydroxy-N-(2-(2-(2-((4-(isoquinolin-8-yl)-3-(4-(isoquinolin-8-yl)phenethoxy)benzyl)oxy)ethoxy)ethoxy)ethyl)-3-oxo-3H-spiro[isobenzofuran-1,9′-xanthene]-5-carboxamide probe in 1× Assay Buffer. • 7. Plates are incubated at rt for 18-24 h in […] (CO2 is off). • 8. Prior to reading the assay, the plates are placed in a dark cabinet to equilibrate at rt for one hour. • 9. Background-subtracted fluorescence polarization (mP) is measured using a PerkinElmer Envision plate reader. • 10. Raw data is entered into Assay Explorer and dose-response curves are generated using a variable slope curve.

Sequence of TNFα (P01375 77-233 limits assumed): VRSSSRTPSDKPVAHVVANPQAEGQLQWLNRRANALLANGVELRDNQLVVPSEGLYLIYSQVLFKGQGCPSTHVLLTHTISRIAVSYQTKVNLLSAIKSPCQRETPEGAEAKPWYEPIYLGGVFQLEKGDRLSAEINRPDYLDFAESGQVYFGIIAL

| Compound | IC50 |
| --- | --- |
| O=C1c2ccc(-c3cnc(N4CCOCC4)nc3)cc2[C@@H]2[C@H](c3ccccc3OC(F)F)CCN12 (single isomer, unassigned) [Example 9.1] | > 10 µM |
| Cc1cccc(C2CCn3c(=O)c4ccc(-c5cnc(N6CCOCC6)nc5)cc4n32)c1C#N (stereo not shown) [Example 8.1, 2-methyl-6-(6-(2-morpholinopyrimidin-5-yl)-9-oxo-1,2,3,9-tetrahydropyrazolo[1,2-a]indazol-3-yl)benzonitrile] | 1 to 10 µM |
| O=C1NC[C@@H]2CN(c3ncc(-c4ccc5c(=O)n6n(c5c4)[C@H](c4ccccc4OC(F)F)CC6)cn3)CCN12 (single isomer, unassigned) [Example 5.2] | < 1 µM |
| COc1ccc(C#N)cc1C1CCn2c(=O)c3ccc(-c4cnc(N5CCOCC5)nc4)cc3n21 (stereo not shown) [Example 8.3, 4-methoxy-3-(6-(2-morpholinopyrimidin-5-yl)-9-oxo-1,2,3,9-tetrahydropyrazolo[1,2-a]indazol-3-yl)benzonitrile] | 1 to 10 µM |
| CC(=O)N1CCN(c2ncc(-c3ccc4c(=O)n5n(c4c3)[C@@H](c3ccccc3OC(F)F)CC5)cn2)[C@H](C)C1 [Example 6.5, (R)-6-(2-((R)-4-acetyl-2-methylpiperazin-1-yl)pyrimidin-5-yl)-3-(2-(difluoromethoxy)phenyl)-2,3-dihydropyrazolo[1,2-a]indazol-9(1H)-one] | < 1 µM |
| COC[C@H]1CCCN1c1ncc(-c2ccc3c(c2)[C@H]2[C@@H](c4ccccc4OC(F)F)CCN2C3=O)cn1 (single isomer, unassigned) [Example 10.4] | > 10 µM |

The next lines start with the values.

| IC50 | Compound |
| --- | --- |
| 1 to 10 µM | COc1ccc(CO)cc1C1CCn2c(=O)c3ccc(-c4cnc(N5CCOCC5)nc4)cc3n21 (stereo not shown) [Example 19, 3-(5-(Hydroxymethyl)-2-methoxyphenyl)-6-(2-morpholinopyrimidin-5-yl)-2,3-dihydropyrazolo[1,2-a]indazol-9(1H)-one] |
| 1 to 10 µM | O=C1C[C@@H](CNc2ncc(-c3ccc4c(=O)n5n(c4c3)[C@@H](c3ccccc3OC(F)F)CC5)cn2)CN1 (single isomer, unassigned) [Example 4.3] |
| < 1 µM | Cc1ccc(OC(F)F)c([C@H]2CCn3c(=O)c4ccc(-c5cnc(C(C)(C)O)nc5)cc4n32)c1 (single isomer, unassigned) [Example 15.2] |
| < 1 µM | O=C1c2ccc(-c3cnc(N4CCOCC4)nc3)cc2[C@H]2[C@@H](c3ccccc3OC(F)F)CCN12 (single isomer, unassigned) [Example 9.2] |
| < 1 µM | O=C1C[C@@H](CNc2ncc(-c3ccc4c(=O)n5n(c4c3)[C@H](c3ccccc3OC(F)F)CC5)cn2)CN1 (single isomer, unassigned) [Example 4.4] |
| < 1 µM | Cc1ccc(OC(F)F)c([C@@H]2CCn3c(=O)c4ccc(-c5cnc(N6CCN7C(=O)NC[C@H]7C6)nc5)cc4n32)c1 (single isomer, unassigned) [Example 14.1] |
| 1 to 10 µM | O=C1C[C@H](CNc2ncc(-c3ccc4c(=O)n5n(c4c3)[C@H](c3ccccc3OC(F)F)CC5)cn2)CN1 (single isomer, unassigned) [Example 4.6] |
